target: T1, human GnRH receptor (Homo sapiens, UniProt P30968); assay: Peptide competition radioligand binding displacement assay, human GnRH receptor membranes; details: one or more of the peptide competition human receptor binding assays
T1 construct: expressed in transfected cells; host or cells: RBL cells, stably transfected (in general)
T1 sequence (P30968 1-328): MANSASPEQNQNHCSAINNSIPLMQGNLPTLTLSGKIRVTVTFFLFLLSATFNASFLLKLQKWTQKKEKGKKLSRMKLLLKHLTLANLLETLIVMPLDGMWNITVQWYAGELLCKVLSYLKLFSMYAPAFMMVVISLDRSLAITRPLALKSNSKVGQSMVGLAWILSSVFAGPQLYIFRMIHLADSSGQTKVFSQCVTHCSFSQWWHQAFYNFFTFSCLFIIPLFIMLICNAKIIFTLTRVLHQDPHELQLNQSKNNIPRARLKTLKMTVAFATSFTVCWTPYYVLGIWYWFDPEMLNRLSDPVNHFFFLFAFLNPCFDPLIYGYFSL
Experimental: cDNA's of human, rhesus macaque, rabbit, dog and rat GnRH receptors are cloned into pcDNA3.1 (+) (Invitrogen). Full length sequences of all receptors are confirmed by DNA sequencing. HEK 293, CHO, COS-7, or rat basophilic leukemia (RBL) cells are stably transfected with human, rat, or macaque GnRH receptors and high expressing single cell clones (Bmax≧0.4 pMol/mg membrane protein) are isolated and maintained in Dulbecco's Modified Eagles Medium (DMEM) with following supplements: 10 mM HEPES; 2 mM L-glutamine; 1 mM Sodium Pyruvate; 50 U/mL penicillin, 50 μg/mL streptomycin; 10% Heat-inactivated Fetal Bovine Serum and 200 μg/mL Geneticin (G-418-Sulfate). Non-essential amino acids (0.1 mM) (Irvine Scientific; Santa Ana, Calif.) are included in the RBL cell media.
In general, initial peptide radioligand binding assays are carried out using membranes from stably transfected RBL cells. RBL stable clones are found to more consistently express high levels of GnRH receptor and are therefore used for subsequent binding studies as well as Ca^++ flux and inositol phosphate accumulation assays. Transiently transfected COS-7 cells are used for preparation of membranes containing GnRH receptors from multiple species (as well as those of mutant receptors for other studies) because of the convenience for rapidly analyzing multiple receptors.
HEK293 cells stably transfected with the human GnRH receptor are grown for two days after achieving confluence then are harvested by striking tissue culture flasks against a firm surface. Cells are collected by centrifugation at 1000 g for 5 minutes. Cell pellets are resuspended in 5% sucrose and homogenized using a polytron homogenizer for two 15 second homogenization steps. Cell homogenates are then centrifuged for 5 minutes at 3000 g to remove nuclei and the supernatant subsequently centrifuged for 30 minutes at 44,000 g to collect the membrane fraction. The membrane pellet is resuspended in GnRH binding buffer (10 mM HEPES, pH 7.5, 150 mM NaCl and 0.1% BSA) and aliquots immediately snap-frozen in liquid nitrogen and stored at −80° C. Protein content of the membrane suspension is determined using the Bio-Rad protein assay kit (Bio-Rad).
RBL cells stably transfected with the human GnRH receptor are grown to 80% confluency prior to harvesting. The cells are incubated at 37° C. for 10 min in 0.5 mM EDTA/PBS (Ca^++, Mg^++ free), and are dislodged from the plate by gentle rapping of the flasks. Cells are collected and pelleted by centrifugation at 1000 g for 5 minutes. Cell pellets are resuspended in buffer (DPBS supplemented with 10 mM MgCl2, 2 mM EGTA, pH=7.4), and cell lysis is performed using a pressure cell and applying N2 at a pressure of 900 psi for 30 min at 4° C. Unbroken cells and larger debris were removed by centrifugation at 1200 g for 10 min at 4° C. The cell membrane supernatant is then centrifuged at 45,000 g and the resulting membrane pellet is resuspended in assay buffer and homogenized on ice using a tissue homogenizer. Protein concentrations are determined using the Coomassie Plus Protein Reagent kit. Membranes are aliquoted and stored at −80° C. until ready for use.
COS-7 cells transiently transfected with GnRH receptors from different species (human, macaque, dog, rabbit, rat) or mutant GnRH receptors are prepared by bulk electroporation. COS-7 cells are obtained from American Type Cell Culture (Manassas, Va.) and are maintained in Dulbeccos's modified Eagle's medium (DMEM) (MediaTech Inc., Herndon, Va.) containing 10% fetal bovine serum, 10 mM HEPES, 2 mM L-glutamine, 1 mM sodium pyruvate, 50 U/mL penicillin, 50 μg/mL streptomycin. COS-7 cells are seeded in 500 cm^2 tissue culture plates and grown to confluency prior to cell transfection. […]

Ki [nM] | SMILES
≤ 100 | COC(=O)CCCOc1ccccc1N(C)C(=O)c1ccc(Cl)c(-c2cnc(C#N)cc2C)c1 [3-8]
≤ 100 | COc1c(Cl)cccc1N(C)C(=O)c1ccc(Cl)c(-c2ncc(Cl)cc2Cl)c1 [19-7]
≤ 100 | COc1cccc(C)c1N(C)C(=O)c1cc(-c2cnc(C#N)cc2C)c(Cl)cc1OCCCC(=O)O [22-2]
≤ 100 | COc1ccc(C)cc1N(C)C(=O)c1cc(-c2cnc(C(F)(F)F)cc2C#N)c(Cl)cc1OCCCC(=O)O [34-12]
≤ 100 | COc1cc(Cl)c(-c2cnc(C(F)(F)F)cc2C#N)cc1C(=O)N(C)c1ccccc1-c1cnco1 [39-12]
≤ 100 | COc1cc(Cl)c(-c2cnc(C(F)(F)F)cc2C#N)cc1C(=O)N(C)c1cnccc1OC [39-20]
≤ 100 | COc1ccccc1N(C)C(=O)c1cc(-c2cnc(C(F)(F)F)cc2C#N)c(Cl)cc1OCCCNC(C)=O [47-3]
≤ 100 | COC(=O)CCCc1ccccc1N(C)C(=O)c1ccc(Cl)c(-c2cnc(C(F)(F)F)cc2C#N)c1 [13-3]
≤ 100 | COc1cccc(C)c1N(C)C(=O)c1ccc(Cl)c(-c2cnc(C)cc2Cl)c1 [2-27]
≤ 100 | CN(C(=O)c1ccc(Cl)c(-c2cnc(C(F)(F)F)cc2C#N)c1)c1ccccc1OCCC(=O)OCOC(=O)C(C)(C)C [36-1, 2,2-Dimethyl-propionic acid 3-(2-{[4-chloro-3-(4-cyano-6-trifluoromethyl-pyridin-3-yl)-benzoyl]-methyl-amino}-phenoxy)-propionyloxymethyl ester]
≤ 100 | CN(C)CCOc1ccccc1N(C)C(=O)c1ccc(Cl)c(-c2cnc(Cl)cc2Cl)c1 [7-1, 4-Chloro-3-(4,6-dichloro-pyridin-3-yl)-N-[2-(2-dimethylamino-ethoxy)-phenyl]-N-methyl-benzamide]
≤ 100 | COc1cc(Cl)c(-c2cnc(C(F)(F)F)cc2C#N)cc1C(=O)N(C)c1c(C)cccc1C [39-1, 4-Chloro-5-(4-cyano-6-trifluoromethyl-pyridin-3-yl)-N-(2,6-dimethyl-phenyl)-2-methoxy-N-methyl-benzamide]
≤ 100 | COc1cccc(C)c1N(C)C(=O)c1ccc(Cl)c(-c2ncc(Cl)cc2Cl)c1 [2-69]
≤ 100 | CC(C)OC(=O)OC(C)OC(=O)CCOc1ccccc1N(C)C(=O)c1ccc(Cl)c(-c2cnc(C(F)(F)F)cc2C#N)c1 (centres unmarked) [37-2, 3-(2-{[4-Chloro-3-(4-cyano-6-trifluoromethyl-pyridin-3-yl)-benzoyl]-methyl-amino}-phenoxy)-propionic acid 1-isopropoxycarbonyloxy-ethyl ester]
≤ 100 | COC(=O)COc1ccccc1N(C)C(=O)c1ccc(Cl)c(-c2cnc(C#N)cc2C)c1 [3-3]
≤ 100 | CN(C(=O)c1ccc(Cl)c(-c2cnc(C(F)(F)F)cc2C#N)c1)c1ccccc1OCCOc1ccccn1 [51-1, 4-Chloro-3-(4-cyano-6-trifluoromethyl-pyridin-3-yl)-N-methyl-N-{2-[2-(pyridin-2-yloxy)-ethoxy]-phenyl}-benzamide]
≤ 100 | Cc1cc(Cl)c(-c2cc(C(=O)N(C)c3cccc(C(F)(F)F)c3C)ccc2Cl)cn1 [2-24]
≤ 100 | CNCCOc1cc(Cl)c(-c2cnc(C(F)(F)F)cc2C#N)cc1C(=O)N(C)c1ccccc1OC [42-17]
≤ 100 | Cc1cccc(C)c1N(C)C(=O)c1cc(-c2cnc(C(F)(F)F)cc2C#N)c(Cl)cc1OCCCC(=O)O [22-4]
≤ 100 | COc1ccccc1N(C)C(=O)c1ccc(Cl)c(-c2cnc(C#N)cc2C)c1 [2-10, 4-chloro-3-(6-cyano-4-methyl-pyridin-3-yl)-N-(2-methoxy-phenyl)-N-methyl-benzamide]
≤ 100 | Cc1cc(C#N)ncc1-c1cc(C(=O)N(C)c2ccccc2OCCC(=O)O)ccc1Cl [11-1, 3-(2-{[4-Chloro-3-(6-cyano-4-methyl-pyridin-3-yl)-benzoyl]-methyl-amino}-phenoxy)-propionic acid]

Ki [nM] | SMILES
≤ 100 | COC(=O)CCCOc1cccc(C)c1N(C)C(=O)c1ccc(Cl)c(-c2cnc(C#N)cc2C)c1 [3-9]
≤ 100 | COc1ccccc1N(C)C(=O)c1cc(-c2cnc(C(F)(F)F)cc2C#N)c(Cl)cc1OCCNS(C)(=O)=O [48-1, 4-Chloro-5-(4-cyano-6-trifluoromethyl-pyridin-3-yl)-2-(2-methanesulfonylamino-ethoxy)-N-(2-methoxy-phenyl)-N-methyl-benzamide]
≤ 100 | Cc1cc(Cl)ncc1-c1cc(C(=O)N(C)c2ccccc2OCCCCC(=O)O)ccc1Cl [4-5]
≤ 100 | COc1ccccc1N(C)C(=O)c1ccc(Cl)c(-c2cnc(C)cc2C)c1 [2-9]
≤ 100 | COc1cc(Cl)c(-c2cnc(C(F)(F)F)cc2C#N)cc1C(=O)N(C)Cc1ccccc1 [39-15]
≤ 100 | CN(C(=O)c1ccc(Cl)c(-c2cnc(C(F)(F)F)cc2C#N)c1)c1ccccc1OCC(C)(C)C(=O)O [52-1, 3-(2-{[4-Chloro-3-(4-cyano-6-trifluoromethyl-pyridin-3-yl)-benzoyl]-methyl-amino}-phenoxy)-2,2-dimethyl-propionic acid]
≤ 100 | COc1cccc(C)c1N(C)C(=O)c1cc(-c2cnc(C(F)(F)F)cc2C#N)c(Cl)cc1OCCO [21-7]
≤ 100 | COc1c(Cl)cccc1N(C)C(=O)c1cc(-c2cnc(C(F)(F)F)cc2C#N)c(Cl)cc1OCCCC(=O)O [34-6]
≤ 100 | CN(C(=O)c1ccc(Cl)c(-c2cnc(C(F)(F)F)cc2C#N)c1)c1ccccc1OCCCN1CCC[C@H]1C(=O)O [50-1, (S)-1-[3-(2-{[4-Chloro-3-(4-cyano-6-trifluoromethyl-pyridin-3-yl)-benzoyl]-methyl-amino}-phenoxy)-propyl]-pyrrolidine-2-carboxylic acid]
≤ 100 | COc1ccccc1N(C)C(=O)c1ccc(Cl)c(-c2cnc(C(F)(F)F)cc2C)c1 [2-12]
≤ 100 | COC(=O)c1ccccc1N(C)C(=O)c1cc(-c2cnc(C(F)(F)F)cc2C#N)c(Cl)cc1OCCCC(=O)O [34-10]
≤ 100 | COc1ccccc1N(C)C(=O)c1cc(-c2cnc(C(F)(F)F)cc2C#N)c(Cl)cc1OCCCN1CCC[C@H]1C(=O)O [49-1, (S)-1-(3-{5-Chloro-4-(4-cyano-6-trifluoromethyl-pyridin-3-yl)-2-[(2-methoxy-phenyl)-methyl-carbamoyl]-phenoxy}-propyl)-pyrrolidine-2-carboxylic acid]
≤ 100 | CN(C(=O)c1ccc(Cl)c(-c2cnc(C(F)(F)F)cc2C#N)c1)c1ccccc1CCCC(=O)O [14-4]
≤ 100 | Cc1cccc(C)c1N(C)C(=O)c1ccc(Cl)c(-n2c(C)cc(C(F)(F)F)nc2=O)c1 [30-11]
≤ 100 | COc1ccccc1N(C)C(=O)c1ccc(Cl)c(-c2ncnc3scc(C)c23)c1 [2-50]
≤ 100 | Cc1cc(Cl)ncc1-c1cc(C(=O)N(C)c2cccc(F)c2OCCCC(=O)O)ccc1Cl [4-4]
≤ 100 | Cc1cccc(N(C)C(=O)c2ccc(Cl)c(-c3ncc(Cl)cc3Cl)c2)c1C [19-10]
≤ 100 | COc1ccc(Cl)cc1N(C)C(=O)c1cc(-c2cnc(C(F)(F)F)cc2C#N)c(Cl)cc1OCCCC(=O)O [34-7]
≤ 100 | Cc1cccc(O)c1N(C)C(=O)c1ccc(Cl)c(-c2cnc(C(F)(F)F)cc2C#N)c1 [8-7]
≤ 100 | Cc1cnc(-c2cc(C(=O)N(C)c3cccc(C)c3C)ccc2Cl)c(Cl)c1 [2-67]
